Assay results: EP1145714A1, “DRUGS” (Takeda Chemical Industries, Ltd., priority 1998, dated 2000)

Tests used:
[1] = test system: acute vomiting induced by cisplatin in ferrets; assay: Acute vomiting induced by cisplatin in ferrets, compound orally given; assay type: in vivo; details: cisplatin 10 mg/kg i.p.; for Duration of retching (in hour; mean ± SD) / Duration of vomiting (in hour;, mean ± SD) / Frequency of retching (mean ± SD) / Frequency of vomiting (mean ± SD) / Number of ferrets with retching /number of tested ferrets / Number of ferrets with vomiting /number of tested ferrets / Time period until first retching (in hour; ± mean SD) / Time period until first vomiting (in hour;, mean ± SD): 5 hours
Method: 5 to 6 male ferrets (1.2 to 2.3 kg) per one group were used. Cisplatin was intraperitoneally given at 10 mg/10 ml/kg. One hour prior to cisplatin administration, a small volume of a feed was given to the animals. 30 minutes prior to cisplatin administration, predetermined doses of the compound No. 3 were orally given. Similarly, 0.5 % methyl cellulose (MC) solution was orally given to a control animal group under no fasting. The frequency of vomiting was counted in number, up to 5 hours after cisplatin administration.
(§1) The compound No. 3 was suspended in 0.5 % methyl cellulose solution to predetermined concentrations, for oral dosing at a ratio of 1 ml per 1 kg body weight. Additionally, 0.5% methyl cellulose solution was orally given at a ratio of 1 ml per 1 kg body weight. The data relating to the frequency of vomiting, the time period (latency) until first vomiting and the time period from the occurrence of vomiting to the termination thereof were statistically analyzed by the Dunnett test, with reference to the difference from the control group.
(§2) The acute retching suppression ratio and acute vomiting suppression ratio were calculated by the following formula. [Frequency of retching or vomiting in control] - [Frequency of retching or vomiting in animals dosed with the compound No. 3] / [Frequency of retching or vomiting in control] x 100 (%) [formula]

[2] = test system: cisplatin-induced acute vomiting in dogs; assay: Cisplatin-induced acute vomiting in dogs, compound orally given; assay type: in vivo, beagle dogs; details: cisplatin 3 mg/kg i.v.; for Duration of vomiting (in hour;, mean ± SD) / Frequency of vomiting (mean ± SD) / Number of dogs with vomiting/number of tested dogs / Time period until first vomiting (in hour;, mean ± SD): 5 hours
Method: 3 or 4 beagle dogs (7.9 to 13.3 kg), male or female, were used per one group. Cisplatin was intravenously administered at 3 mg/3 ml/kg. One hour before cisplatin dosing, a small volume of a feed was given to the animals. 30 minutes before cisplatin administration, predetermined doses of the compound No. 3 were orally given. Similarly, 0.5 % methyl cellulose solution was orally given to the control animals under no fasting. The frequency of vomiting was counted in number, up to 5 hours after cisplatin dosing.
as §1, with “the 0.5 %” for “0.5%”
as §2

[3] = test system: acute vomiting induced by cisplatin in ferrets; assay: Acute vomiting induced by cisplatin in ferrets, compound intraperitoneally given; assay type: in vivo; details: 1 mg/kg i.p., cisplatin 10 mg/kg i.p.
Method: 6 to 9 male ferrets (1.2 to 1.7 kg) per one group were used. Cisplatin was intraperitoneally given at 10 mg/kg. 30 minutes prior to cisplatin administration, predetermined doses of the compound No. 3 were intraperitoneally given to the animals under fasting. Similarly, PEG 400 was intraperitoneally given to a control animal group under fasting. The frequency of vomiting was counted in number, up to 5 hours after cisplatin administration.
The compound No. 3 was dissolved in PEG 400, for intraperitoneal dosing at a ratio of 1 ml per 1 kg body weight. Additionally, PEG 400 was intraperitoneally given at a ratio of 1 ml per 1 kg body weight. The data relating to the frequency of vomiting, the latency and the time period from the occurrence of vomiting to the termination thereof were statistically analyzed by the t test, with reference to the difference from the control group.
The acute retching suppression ratio and acute vomiting suppression ratio were determined in the same manner as in Example 1,3.

Cc1ccc(-c2c3n(c(=O)c4ncccc24)CC[C@@H](C)CN(Cc2cc(C(F)(F)F)cc(C(F)(F)F)c2)C3=O)cc1 [Cpd. No.3, (9R)-7-[3,5-bis(trifluoromethyl)benzyl]-6,7,8,9,10,11-hexahydro-9-methyl-5-(4-methylphenyl)-6,13-dioxo-13H-[1,4]diazocino[2,1-g][1,7]naphthylidine]
Suppression ratio of acute retching ([1]; 1 mg/kg p.o.): 38 % NS
Suppression ratio of acute vomiting ([1]; 1 mg/kg p.o.): 22 % NS
Duration of retching (in hour; mean ± SD) ([1]; 1 mg/kg p.o.): 1.7 ± 0.4 h
Duration of vomiting (in hour;, mean ± SD) ([1]; 1 mg/kg p.o.): 1.4 ± 0.4 h
Frequency of retching (mean ± SD) ([1]; 1 mg/kg p.o.): 79.0 ± 15.1
Frequency of vomiting (mean ± SD) ([1]; 1 mg/kg p.o.): 8.3 ± 2.2
Number of ferrets with retching /number of tested ferrets ([1]; 1 mg/kg p.o.): 6/6
Number of ferrets with vomiting /number of tested ferrets ([1]; 1 mg/kg p.o.): 6/6
Time period until first retching (in hour; ± mean SD) ([1]; 1 mg/kg p.o.): 1.5 ± 0.1 h
Time period until first vomiting (in hour;, mean ± SD) ([1]; 1 mg/kg p.o.): 1.6 ± 0.1 h
Effect on vomiting (in words) ([1]; 3 mg/kg p.o.): significantly suppressed
Suppression ratio of acute retching ([1]; 3 mg/kg p.o.): 53 % b
Suppression ratio of acute vomiting ([1]; 3 mg/kg p.o.): 27 % NS
Duration of retching (in hour; mean ± SD) ([1]; 3 mg/kg p.o.): 1.7 ± 0.3 h
Duration of vomiting (in hour;, mean ± SD) ([1]; 3 mg/kg p.o.): 1.6 ± 0.4 h
Frequency of retching (mean ± SD) ([1]; 3 mg/kg p.o.): 59.3 ± 12.0 b
Frequency of vomiting (mean ± SD) ([1]; 3 mg/kg p.o.): 7.8 ± 1.3
Number of ferrets with retching /number of tested ferrets ([1]; 3 mg/kg p.o.): 6/6
Number of ferrets with vomiting /number of tested ferrets ([1]; 3 mg/kg p.o.): 6/6
Time period until first retching (in hour; ± mean SD) ([1]; 3 mg/kg p.o.): 1.6 ± 0.1 h
Time period until first vomiting (in hour;, mean ± SD) ([1]; 3 mg/kg p.o.): 1.6 ± 0.1 h
Effect on vomiting (in words) ([1]; 10 mg/kg p.o.): prominently suppressed
Suppression ratio of acute retching ([1]; 10 mg/kg p.o.): 88 % b
Suppression ratio of acute vomiting ([1]; 10 mg/kg p.o.): 70 % b
Duration of retching (in hour; mean ± SD) ([1]; 10 mg/kg p.o.): 2.4 ± 0.5 h
Duration of vomiting (in hour;, mean ± SD) ([1]; 10 mg/kg p.o.): 1.0 ± 0.4 h
Frequency of retching (mean ± SD) ([1]; 10 mg/kg p.o.): 14.8 ± 3.7 b
Frequency of vomiting (mean ± SD) ([1]; 10 mg/kg p.o.): 3.2 ± 1.0 b
Number of ferrets with retching /number of tested ferrets ([1]; 10 mg/kg p.o.): 5/6
Number of ferrets with vomiting /number of tested ferrets ([1]; 10 mg/kg p.o.): 5/6
Time period until first retching (in hour; ± mean SD) ([1]; 10 mg/kg p.o.): 2.1 ± 0.6 h
Time period until first vomiting (in hour;, mean ± SD) ([1]; 10 mg/kg p.o.): 2.2 ± 0.6 h
Suppression ratio of acute vomiting ([2]; 1 mg/kg p.o.): 18 % NS
Duration of vomiting (in hour;, mean ± SD) ([2]; 1 mg/kg p.o.): 1.5 ± 0.2 h
Frequency of vomiting (mean ± SD) ([2]; 1 mg/kg p.o.): 11.3 ± 0.5
Number of dogs with vomiting/number of tested dogs ([2]; 1 mg/kg p.o.): 4/4
Time period until first vomiting (in hour;, mean ± SD) ([2]; 1 mg/kg p.o.): 1.6 ± 0.2 h
Effect on cisplatin-induced vomiting (in words) ([2]; 3 mg/kg or higher p.o.): significantly suppressed
Suppression ratio of acute vomiting ([2]; 3 mg/kg p.o.): 54 % NS
Duration of vomiting (in hour;, mean ± SD) ([2]; 3 mg/kg p.o.): 1.1 ± 0.2 h
Frequency of vomiting (mean ± SD) ([2]; 3 mg/kg p.o.): 6.3 ± 0.8 a
Number of dogs with vomiting/number of tested dogs ([2]; 3 mg/kg p.o.): 4/4
Time period until first vomiting (in hour;, mean ± SD) ([2]; 3 mg/kg p.o.): 1.9 ± 0.1 h
Effect on cisplatin-induced vomiting (in words) ([2]; 10 mg/kg p.o.): almost completely suppressed
Effect on the latency (in words) ([2]; 10 mg/kg p.o.): prolonged
Suppression ratio of acute vomiting ([2]; 10 mg/kg p.o.): 93 % b
Duration of vomiting (in hour;, mean ± SD) ([2]; 10 mg/kg p.o.): 0.2 ± 0.2 a hour
Frequency of vomiting (mean ± SD) ([2]; 10 mg/kg p.o.): 1.0 ± 0.7 a
Number of dogs with vomiting/number of tested dogs ([2]; 10 mg/kg p.o.): 2/4
Time period until first vomiting (in hour;, mean ± SD) ([2]; 10 mg/kg p.o.): 3.6 ± 0.8 a hour
Effect on cisplatin-induced retching and actual vomiting (in words) [3]: significantly suppressed
Suppression ratio of acute retching [3]: 53 % b
Suppression ratio of acute vomiting [3]: 49 % a
Duration of retching (in minute, mean ± SD) ([3]; 5 hours): 2.6 ± 0.3 min
Duration of vomiting (in minute, mean ± SD) ([3]; 5 hours): 1.7 ± 0.3 b minute
Frequency of retching (mean ± SD) ([3]; 5 hours): 57.5 ± 6.2 b
Frequency of vomiting (mean ± SD) ([3]; 5 hours): 5.7 ± 1.0 a
Number of ferrets with retching /number of tested ferrets ([3]; 5 hours): 6/6
Number of ferrets with vomiting /number of tested ferrets ([3]; 5 hours): 6/6
Time period until first retching (in minute, mean ± SD) ([3]; 5 hours): 1.5 ± 0.1 min
Time period until first vomiting (in minute, mean ± SD) ([3]; 5 hours): 1.8 ± 0.1 min
